One experiment concerns the target HIF prolyl hydroxylase. The experiment in a line: Inhibition of the activity of HIF prolyl hydroxylase (VBC complex binding to hydroxylated peptide substrate). The format is biochemical. The settings on record: cell lysate containing prolyl hydroxylase, biotin-DLDLEMLAPYIPMDDDFQL peptide substrate. The procedure: Hydroxylated HIF bonds specifically to the von Hippel-Lindau protein-elongin B-elongin C complex (VBC complex). This interaction occurs only if HIF is hydroxylated on a conserved prolyl radical. It is the basis for the biochemical determination of HIF prolyl hydroxylase activity. The test is carried out as described [Oehme F., Jonghaus W., Narouz-Ott L., Huetter J., Flamme I., Anal. Biochem. 330 (1), 74-80 (2004)]:
A clear 96-well microtiter plate coated with NeutrAvidin HBC (Pierce) is incubated with blocker casein for 30 minutes. The plate is then washed three times with 200 μl each time of wash buffer (50 mM Tris, pH 7.5, 100 mM NaCl, 10% (v/v) blocker casein, 0.05% (v/v) Tween 20) per well. The peptide biotin-DLDLEMLAPYIPMDDDFQL (Eurogentec, 4102 Seraing, Belgium) is added in a concentration of 400 nM in 100 μl wash buffer. This peptide serves as a substrate for the prolyl hydroxylation and is bonded to the microtiter plate. After incubation for 30 minutes, the plate is washed three times with wash buffer, incubated with 1 mM biotin in blocker casein for 30 minutes and then washed again three times with wash buffer.
To carry out the prolyl hydroxylase reaction, the peptide substrate bonded to the plate is incubated with a cell lysate containing prolyl hydroxylase for 1 to 60 minutes. The reaction takes place in 100 μl reaction buffer (20 mM Tris, pH 7.5, 5 mM KCl, 1.5 mM MgCl2, 1 μM-1 mM 2-oxoglutarate, 10 μM FeSO4, 2 mM ascorbate) at room temperature. The reaction mixture moreover contains various concentrations of the prolyl hydroxylase inhibitor to be tested. The test substance is preferably, but not exclusively, employed at concentrations of between 1 nM and 100 μM. The reaction is stopped by washing the plate three times with wash buffer.
For quantitative determination of the prolyl hydroxylation, a fusion protein which contains both thioredoxin from E. coli and the VBC complex is added in 80 μl bonding buffer (50 mM Tris, pH 7.5, 120 mM NaCl). After 15 minutes, 10 μl of a solution of polyclonal anti-thioredoxin antibodies from rabbit in bonding buffer are added. After a further 30 minutes, 10 μl of a solution of anti-rabbit immunoglobulin coupled to horseradish peroxidase in bonding buffer are added. After incubation at room temperature for 30 minutes, the plate is washed three times with wash buffer in order to remove non-bonded VBC complex and antibodies. To determine the amount of bonded VBC complex, the plate is incubated with TMB for 15 minutes. The color reaction is ended by addition of 100 μl 1 M sulfuric acid. The amount of bonded VBC complex is determined by measurement of the optical density at 450 nm. It is proportional to the amount of hydroxylated proline in the peptide substrate.
Alternatively, a VBC complex coupled to europium (Perkin Elmer) can be used for detection of the prolyl hydroxylation. In this case, the amount of bonded VBC complex is determined by the fluorescence with respect to time. The use of VBC complex labeled with [^35S]-methionine is moreover possible. For this, the radioactively labeled VBC complex can be prepared by in vitro transcription-translation in reticulocyte lysate.

Experiment [1] deals with recombinant A549 cell line with HRE-controlled luciferase reporter. The experiment in a line: Cellular, functional in vitro test: luciferase reporter under hypoxia-responsible elements in recombinant A549 cell line. The class given is cell-based. The settings on record: Homo sapiens, luciferase light signal six to 24 hours after addition of test substance. The text has this:
The activity of the compounds according to the invention is quantified with the aid of a recombinant cell line. The cell is originally derived from a human lung carcinoma cell line (A549, ATCC: American Type Culture Collection, Manassas, Va. 20108, USA). The test cell line is transfected in a stable manner with a vector which contains the reporter gene of Photinus pyralis luciferase (called luciferase in the following) under the control of an artificial minimal promoter. The minimal promoter comprises two hypoxia-responsible elements upstream of a TATA box [Oehme F., Ellinghaus P., Kolkhof P., Smith T. J., Ramakrishnan S., Hütter J., Schramm M., Flamme I., Biochem. Biophys. Res. Commun. 296 (2), 343-9 (2002)]. Under the effect of hypoxia (e.g. culturing in the presence of 1% oxygen for 24 hours) or under the action of non-selective dioxygenase inhibitors (e.g. desferroxamine in a concentration of 100 μM, cobalt chloride in a concentration of 100 μM or N-oxalylglycine diethyl ester in a concentration of 1 mM), the test cell line produces luciferase, which can be detected and quantified with the aid of suitable bioluminescence reagents (e.g. Steady-Glo® Luciferase Assay System, Promega Corporation, Madison, Wis. 53711, USA) and a suitable luminometer.
Test Procedure: On the day before the test, the cells are plated out in an exactly calculated amount of culture medium (DMEM, 10% FCS, 2 mM glutamine) in 384- or 1,536-well microtiter plates and kept in a cell incubator (96% atmospheric humidity, 5% v/v CO2, 37° C.). On the test day, the test substances are added to the culture medium in graduated concentrations. No test substance is added to the cells in batches serving as negative controls. As a positive control for determination of the sensitivity of the cell to inhibitors, desferroxamine e.g. is added in a final concentration of 100 μM. Six to 24 hours after transfer of the test substances into the wells of the microtiter plate, the resulting light signal is measured in the luminometer. A dose/effect relationship is plotted with the aid of the measurement values, which serves as the basis for determining the half-maximum active concentration (call the EC50 value in the following).

Molecules are shown by their SMILES. Where a name gives a salt, the structure may show the parent alone.

What is called IC50 is the midpoint of a concentration-inhibition curve. What is called EC50 is the concentration needed to bring the measured effect to its halfway point. With `O=c1c(-c2cccnc2)c[nH]n1-c1ccccn1` [Example 6, 2-Pyridin-2-yl-4-pyridin-3-yl-1,2-dihydro-3H-pyrazol-3-one], the 50% inhibitory concentration (IC50) on HIF prolyl hydroxylase was 0.43 µM. Besides, the EC50 in experiment [1] came out at 4.9 µM.
In the case of `NCc1ccnc(-n2[nH]cc(-c3cccnc3)c2=O)c1` [Example 35, 2-[4-(Aminomethyl)pyridin-2-yl]-4-pyridin-3-yl-1,2-dihydro-3H-pyrazol-3-one dihydrochloride], at HIF prolyl hydroxylase, the half-inhibitory concentration (IC50) is 2.3 µM. Besides, the 50% effective concentration (EC50) in experiment [1] stood at 17.2 µM.
Taken in the same sequence, the figures for `O=C(Cc1ccccc1)NCc1ccnc(-n2[nH]cc(-c3cccnc3)c2=O)c1` [Example 46, N-{[2-(5-Oxo-4-pyridin-3-yl-2,5-dihydro-1H-pyrazol-1-yl)pyridin-4-yl]methyl}-2-phenylacetamide hydrochloride] were 0.7 µM and 7.4 µM.
`O=c1c(-c2cccnc2)c[nH]n1-c1ccc(CO)cn1` [Example 23, 2-(5-Hydroxymethyl-pyridin-2-yl)-4-pyridin-3-yl-1,2-dihydro-3H-pyrazol-3-one hydrochloride] displayed a half-maximal inhibitory concentration (IC50) on HIF prolyl hydroxylase of 0.86 µM. In addition, the half-maximal effective concentration (EC50) in experiment [1] is 13.4 µM.
`CC(=O)NCc1ccnc(-n2[nH]cc(-c3cccnc3)c2=O)c1` [Example 47, N-{[2-(5-Oxo-4-pyridin-3-yl-2,5-dihydro-1H-pyrazol-1-yl)pyridin-4-yl]methyl}acetamide hydrochloride] returned a 50% inhibitory concentration (IC50) on HIF prolyl hydroxylase of 2.2 µM. The EC50 in experiment [1] amounted to 12.4 µM.
As to `O=C(CCn1cc(Cl)cn1)NCc1ccnc(-n2[nH]cc(-c3cccnc3)c2=O)c1` [Example 50, 3-(4-Chloro-1H-pyrazol-1-yl)-N-{[2-(5-oxo-4-pyridin-3-yl-2,5-dihydro-1H-pyrazol-1-yl)pyridin-4-yl]methyl}propanamide], the IC50 at HIF prolyl hydroxylase is 1.9 µM. In addition, the concentration for a half-maximal effect (EC50) in experiment [1] turned out to be 7.1 µM.
In turn, `Cc1ccnc(-n2[nH]cc(-c3ccc(C#N)nc3)c2=O)c1` [Example 34, 4-(6-Cyanopyridin-3-yl)-2-(4-methylpyridin-2-yl)-1,2-dihydro-3H-pyrazol-3-one hydrochloride] gave a 50% inhibitory concentration (IC50) on HIF prolyl hydroxylase of 0.18 µM. Further, the EC50 in experiment [1] was determined as 4.7 µM.
Taken in the same sequence, the figures for `O=c1c(-c2cccnc2)c[nH]n1-c1cc(CO)ccn1` [Example 43, 2-[4-(Hydroxymethyl)pyridin-2-yl]-4-pyridin-3-yl-1,2-dihydro-3H-pyrazol-3-one hydrochloride] were 1.5 µM and 7.6 µM.
For `Cc1ncccc1-c1c[nH]n(-c2ccccn2)c1=O` [Example 26], the IC50 at HIF prolyl hydroxylase was found to be 0.76 µM. Further, the EC50 in experiment [1] was found to be 6 µM.
The like results for `O=C(NCc1ccnc(-n2[nH]cc(-c3cccnc3)c2=O)c1)c1ccccc1` [Example 48, N-{[2-(5-Oxo-4-pyridin-3-yl-2,5-dihydro-1H-pyrazol-1-yl)pyridin-4-yl]methyl}benzamide hydrochloride] were, in that order, 1.9 µM and 18.9 µM.

For the origin of these results see US9085572B2, “4-(pyridin-3-yl)-2(pyridin-2yl)-1,2-dihydro-3H-pyrazol-3-one derivatives as specific HIF-pyrolyl-4-hydroxylase inhibitors for treating cardiovascular and haematological diseases” (Bayer Intellectual Property GmbH, priority 2005, dated 2015).
